Measurements: patent US11059784B2, “Oxime ether compounds” (BRISTOL-MYERS SQUIBB COMPANY, priority 2017, dated 2021)

Columns and labels:
S1P3 = S1P3 (Homo sapiens (Human), UniProt Q99500); experiment: Receptor [35S] GTPγS Binding Assay, S1P3; type: biochemical; conditions: membranes from EDG3-Gal5-bla HEK293T cells
Description: (§1) Receptor [^35S] GTPγS Binding Assays:
(§2) Compounds were loaded in a 384 Falcon v-bottom plate (0.5 μl/well in an 11 point, 3-fold dilution). Membranes prepared from S1P1/CHO cells or EDG3-Gal5-bla HEK293T cells (EDG3 equivalent S1P3) were added to the compound plate ([…], final protein 3 μg/well) with MULTIDROP®. [^35S]GTP (1250 Ci/mmol, Perkin Elmer) was diluted in assay buffer: 20 mM HEPES, pH7.5, 10 mM MgCl2, 150 mM NaCl, 1 mM EGTA (ethylene glycol tetraacetic acid), 1 mM DTT (Dithiothreitol), 10 μM GDP, 0.1% fatty acid free BSA, and 10 μg/ml Saponin to 0.4 nM. 40 μl of the [35S] GTP solution was added to the compound plate with a final concentration of 0.2 nM. The reaction was kept at room temperature for 45 min. At the end of incubation, all the mixtures in the compound plate were transferred to Millipore 384-well FB filter plates via the VELOCITY11 ® Vprep liquid handler. The filter plate was washed with water 4 times by using the manifold Embla plate washer and dried at 60° C. for 45 min. MicroScint 20 scintillation fluid (30 μl) was added to each well for counting on the Packard TOPCOUNT®. EC50 is defined as the agonist concentration that corresponds to 50% of the Ymax (maximal response) obtained for each individual compound tested.

S1P1 [1] = target: T1, S1P1 (Homo sapiens (Human), UniProt P21453); experiment: S1P1 Binding Assay (33P-S1P ligand competition, CHO membranes); conditions: membranes from CHO cells expressing human S1P1
Description: Membranes were prepared from CHO cells expressing human S1P1. Cells pellets (1×10^9 cells/pellet) were suspended in buffer containing 20 mM HEPES (4-(2-hydroxyethyl)-1-piperazineethanesulfonic acid), pH 7.5, 50 mM NaCl, 2 mM EDTA (ethylenediamine tetraacetic acid) and Protease Inhibitor cocktail (Roche), and disrupted on ice using the Polytron homogenizer. The homogenate was centrifuged at 20,000 rpm (48,000 g) and the supernatant was discarded. The membrane pellets were resuspended in buffer containing 50 mM HEPES, pH 7.5, 100 mM NaCl, 1 mM MgCl2, 2 mM EDTA and stored in aliquots at −80° C. after protein concentration determination.
Membranes (2 μg/well) and 0.03 nM final concentration of ^33P-S1P ligand (1 mCi/ml, Perkin Elmer or American Radiolabeled Chemicals) diluted in assay buffer (50 mM HEPES, pH7.4, 5 mM MgCl2, 1 mM CaCl2), 0.5% fatty acid free BSA (bovine serum albumin), 1 mM NaF) were added to the compound plates (384 Falcon v-bottom plate (0.5 μl/well in a 11 point, 3-fold dilution). Binding was performed for 45 minutes at room temperature, terminated by collecting the membranes onto 384-well Millipore FB filter plates, and radioactivity was measured by TOPCOUNT®. The competition data of the test compounds over a range of concentrations was plotted as percentage inhibition of radioligand specific binding. The IC50 is defined as the concentration of competing ligand needed to reduce specific binding by 50%.

S1P1 [2] = target: T1, S1P1; experiment: Receptor [35S] GTPγS Binding Assay, S1P1; type: biochemical; conditions: membranes from S1P1/CHO cells
Description: as §1, §2
A smaller value for GTPγS S1P1 EC50 value indicated greater activity for the compound in the GTPγS S1P1 binding assay. Thus the compounds of the present invention may be used in treating, preventing, or curing various S1P1 receptor-related conditions. The compounds have potential use in treating, preventing, or curing autoimmune and inflammatory diseases such as multiple sclerosis, rheumatoid arthritis, inflammatory bowel disease, lupus, psoriasis, or minimizing or reducing rejection of transplanted organs.

[3] = Pulmonary Toxicity Assay (bronchoalveolar lavage protein); type: in vivo, rats; conditions: 24 hr post-dose
Description: The analysis of protein levels in bronchoalveolar lavage (BAL) fluid obtained from an animal were used to gauge pulmonary side effects. Increased levels of protein in BAL fluid were indicative of undesired edematous pulmonary effects, such as pulmonary edema.
Example 3 was administered orally to rats at doses of 0.3, 1.0, 10, 30 mg/kg and 2-amino-2-[2-(4-octylphenyl)ethyl]-1,3-propanediol, hydrochloride (CAS: 162359-56-0) was administered at 3.0 mg/kg as a solution in the vehicle. At 24 hours post dose, the rats were then euthanized by barbiturate overdose. The trachea was exposed by incision of the overlying skin and then cannulated. The lungs were lavaged with 4 mL of saline. The recovered lavage fluid was assayed for total protein content. The concentration of the BAL protein in the recovered BAL fluid was determined on an Advia 1800 Chemistry Analyzer (Siemens Healthcare Diagnostics). The results represent the average results of all animals within each treatment group (n=2-4).

blood lymphocytes [4] = experiment: Blood Lymphocyte Reduction (BLR) assay in rodent; type: in vivo, Lewis rats; conditions: 24 hr post-dose; for Percent reduction vs. vehicle control: Table C study
blood lymphocytes [5] = experiment: Blood Lymphocyte Reduction (BLR) assay in rodent; type: in vivo, Lewis rats; conditions: 24 hr post-dose, Table B study; for Percent reduction vs. control: hydrochloride
Description: Blood Lymphocyte Reduction (BLR) assay in rodent:
Lewis rats were dosed orally with vehicle alone (polyethylene glycol 300, “PEG300”) or with the comparative compound 2-amino-2-[2-(4-octylphenyl)ethyl]-1,3-propanediol, hydrochloride (“FTY” CAS: […]) as a solution in the vehicle at doses of 0.1 mg/kg, 0.5 mg/kg and 3.0 mg/kg. The results are provided in Table Band the level of lymphocyte reduction at 24 hours post-dose was maximal at 3.0 mg/kg. The percent reduction in lymphocytes is dose-related but the relationship is not linear, with non-proportional increases in dose being required to elicit sequentially greater reductions in lymphocyte counts.

T1 sequence (P21453 whole entry): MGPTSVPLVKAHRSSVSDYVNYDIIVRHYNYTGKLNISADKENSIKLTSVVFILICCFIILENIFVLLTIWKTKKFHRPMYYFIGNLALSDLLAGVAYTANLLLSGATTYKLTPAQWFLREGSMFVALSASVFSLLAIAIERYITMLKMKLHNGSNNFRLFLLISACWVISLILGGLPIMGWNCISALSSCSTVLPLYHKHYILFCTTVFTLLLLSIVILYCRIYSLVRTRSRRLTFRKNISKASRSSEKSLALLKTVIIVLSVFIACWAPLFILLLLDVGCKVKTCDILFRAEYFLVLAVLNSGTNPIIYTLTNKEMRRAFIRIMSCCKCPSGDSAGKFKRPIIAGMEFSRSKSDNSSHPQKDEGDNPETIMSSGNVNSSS
Sequence of S1P3 (Q99500 whole entry): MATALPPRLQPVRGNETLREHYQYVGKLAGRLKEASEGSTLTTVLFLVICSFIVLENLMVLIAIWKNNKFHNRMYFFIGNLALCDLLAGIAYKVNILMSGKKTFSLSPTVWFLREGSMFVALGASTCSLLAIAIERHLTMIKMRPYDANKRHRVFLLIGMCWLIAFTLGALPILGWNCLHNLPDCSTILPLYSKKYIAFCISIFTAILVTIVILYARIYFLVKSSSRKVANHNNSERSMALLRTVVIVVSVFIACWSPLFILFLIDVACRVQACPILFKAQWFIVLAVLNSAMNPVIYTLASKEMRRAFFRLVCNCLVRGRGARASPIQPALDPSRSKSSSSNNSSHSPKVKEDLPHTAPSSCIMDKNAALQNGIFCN

Compound | EC50 (S1P3) | IC50 (S1P1 [1]) | EC50 (S1P1 [2]) | other results
COc1cccc(CO/N=C(\C)c2ccc([C@@H]3CC[C@](N)(COP(=O)(O)O)C3)cc2)c1 [Example 50, ((1R,3R)-1-amino-3-(4-((E)-1-(((3-methoxybenzyl)oxy)imino)ethyl)phenyl)cyclopentyl) methyl dihydrogen phosphate] | > 60000 nM | 563 nM | 630 nM | –
C/C(=N\OCCc1ccccc1)c1ccc([C@@H]2CC[C@](N)(COP(=O)(O)O)C2)cc1 [Example 72, ((1R,3R)-1-amino-3-(4-((E)-1-(phenethoxyimino)ethyl)phenyl)cyclopentyl)methyl dihydrogen phosphate] | > 30000 nM | 61.6 nM | 91.5 nM | –
CCCCCCCCc1ccc(CCC(N)(CO)CO)cc1.Cl [FTY, 2-amino-2-[2-(4-octylphenyl)ethyl]-1,3-propanediol, hydrochloride] | – | – | – | Relative BAL protein vs. control ([3]; 3 mg/kg oral): 1.8; Percent reduction vs. vehicle control (blood lymphocytes [4]; 3 mg/kg): 87%; Rat Blood Lymphocyte Reduction Assay, Compound Mean (blood lymphocytes [5]; 0.1 mg/kg oral): 2.78; Percent reduction vs. control (blood lymphocytes [5]; 0.1 mg/kg oral): 69%; Percent reduction vs. control (blood lymphocytes [5]; 0.1 mg/kg oral, listed as 2-amino-2-[2-(4-octylphenl)pethyl]-1,3-propanediol): 69%; Rat Blood Lymphocyte Reduction Assay, Compound Mean (blood lymphocytes [5]; 0.5 mg/kg oral): 1.64; Percent reduction vs. control (blood lymphocytes [5]; 0.5 mg/kg oral): 82%; Percent reduction vs. control (blood lymphocytes [5]; 0.5 mg/kg oral, listed as 2-amino-2-[2-(4-octylphenl)pethyl]-1,3-propanediol): 82%; Rat Blood Lymphocyte Reduction Assay, Compound Mean (blood lymphocytes [5]; 3.0 mg/kg oral): 1.02; Percent reduction vs. control (blood lymphocytes [5]; 3.0 mg/kg oral): 89%; Percent reduction vs. control (blood lymphocytes [5]; 3.0 mg/kg oral, listed as 2-amino-2-[2-(4-octylphenl)pethyl]-1,3-propanediol): 89%
C/C(=N\OCc1ccc(C2CCCCC2)c(C(F)(F)F)c1)c1ccc(C(=O)N2CCCC(N)(COP(=O)(O)O)C2)cc1 (single isomer, unassigned) [Example 66, (E)-(3-amino-1-(4-(1-(((4-cyclohexyl-3-(trifluoromethyl)benzyl)oxy)imino)ethyl)benzoyl)piperidin-3-yl)methyl dihydrogen phosphate] | 9370 nM | 62 nM | 194 nM | –
CC(=NOCCc1ccccc1)c1ccc(C2CCC(N)(CO)C2)cc1.Cl (centres unmarked) [Example 3, 1-(4-(3-amino-3-(hydroxymethyl)cyclopentyl)phenyl)ethanone O-phenethyl Oxime] | – | – | – | Relative BAL protein vs. control ([3]; 0.3 mg/kg oral): 0.8; Relative BAL protein vs. control ([3]; 1 mg/kg oral): 0.8; Relative BAL protein vs. control ([3]; 10 mg/kg oral): 1.2; Relative BAL protein vs. control ([3]; 30 mg/kg oral): 1.3; Percent reduction vs. vehicle control (blood lymphocytes [4]; 0.3 mg/kg): 29%; Percent reduction vs. vehicle control (blood lymphocytes [4]; 1 mg/kg): 62%; level of lymphocyte reduction (in words) (blood lymphocytes [4]; 10 mg/kg and 30 mg/kg): maximal level of lymphocyte reduction comparable to the reduction shown by FTY; Percent reduction vs. vehicle control (blood lymphocytes [4]; 10 mg/kg): 85%; Percent reduction vs. vehicle control (blood lymphocytes [4]; 30 mg/kg): 85%

Now from value to compound, other results behind:

EC50 (S1P3) | IC50 (S1P1 [1]) | EC50 (S1P1 [2]) | Compound | other results
> 60000 nM | 2.7 nM | 5.6 nM | CC(=NOCc1ccc(C(F)(F)F)cc1)c1ccc([C@@H]2CC[C@](N)(COP(=O)(O)O)C2)cc1 [Example 45, ((1R,3R)-1-amino-3-(4-(1-(((4-(trifluoromethyl)benzyl)oxy)imino)ethyl)phenyl)cyclopentyl)methyl dihydrogen phosphate] | –
> 6250 nM | 28.4 nM | 434 nM | C/C(=N\OCc1ccc(C2CCCCC2)c(C(F)(F)F)c1)c1ccc(C(=O)N2CCC(N)(COP(=O)(O)O)C2)cc1 (single isomer, unassigned) [Example 60, (E)-(3-amino-1-(4-(1-(((4-cyclohexyl-3-(trifluoromethyl)benzyl)oxy)imino)ethyl)benzoyl)pyrrolidin-3-yl)methyl dihydrogen phosphate] | –
9370 nM | 362 nM | 399 nM | C/C(=N\OCCCc1ccccc1)c1ccc(C(=O)N2CCCC(N)(COP(=O)(O)O)C2)cc1 (single isomer, unassigned) [Example 68, (E)-(3-amino-1-(4-(1-((3-phenylpropoxy)imino)ethyl)benzoyl)piperidin-3-yl)methyl dihydrogen phosphate] | –
> 18000 nM | 219 nM | 242 nM | C/C(=N\OCCCc1ccccc1)c1ccc(S(=O)(=O)N2CCC(N)(COP(=O)(O)O)CC2)cc1 [Example 71, (E)-(4-amino-1-((4-(1-((3-phenylpropoxy)imino)ethyl)phenyl)sulfonyl)piperidin-4-yl)methyl dihydrogen phosphate] | –
> 6250 nM | 2530 nM | 500 nM | CC/C(=N\OCCCc1ccccc1)c1ccc(C(=O)N2CCC(N)(COP(=O)(O)O)C2)cc1 (single isomer, unassigned) [Example 64, (E)-(3-amino-1-(4-(1-((3-phenylpropoxy)imino)propyl)benzoyl)pyrrolidin-3-yl) methyl dihydrogen phosphate] | –
> 6250 nM | 126 nM | 204 nM | C/C(=N\OCCCc1ccccc1)c1ccc(C(=O)N2CCC(N)(COP(=O)(O)O)C2)cc1 (single isomer, unassigned) [Example 61, (E)-(3-amino-1-(4-(1-((3-phenylpropoxy)imino)ethyl)benzoyl)pyrrolidin-3-yl)methyl dihydrogen phosphate] | –
